Assay results taken from PubChem BioAssay (NCI).
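Dose response: 5 concentrations. Exposure: 48 h. Format: 96-well plates. Endpoint: linear interpolation; highest concentration if not reached. TGI: total growth inhibition.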

Tests used:
Test in all cases: growth of human tumour cells (NCI), 48 h
MDA-MB-231 breast = tested on: MDA-MB-231 breast
OVCAR-8 ovarian = tested on: OVCAR-8 ovarian
SW-620 colon = tested on: SW-620 colon
UACC-62 melanoma = tested on: UACC-62 melanoma
CCRF-CEM leukemia = tested on: CCRF-CEM leukemia
CAKI-1 renal = tested on: CAKI-1 renal
NCI-H522 lung = tested on: NCI-H522 lung
HL-60(TB) leukemia = tested on: HL-60(TB) leukemia
NCI-H226 lung = tested on: NCI-H226 lung
OVCAR-5 ovarian = tested on: OVCAR-5 ovarian
SN12C renal = tested on: SN12C renal
RXF 393 renal = tested on: RXF 393 renal
OVCAR-3 ovarian = tested on: OVCAR-3 ovarian
ACHN renal = tested on: ACHN renal
EKVX NSCLC = tested on: EKVX NSCLC
SNB-75 CNS = tested on: SNB-75 CNS
MDA-N = tested on: MDA-N
HS 578T breast = tested on: HS 578T breast
HCT-15 colon = tested on: HCT-15 colon
A549 NSCLC = tested on: A549 NSCLC
OVCAR-4 ovarian = tested on: OVCAR-4 ovarian
HT29 colon = tested on: HT29 colon
SK-OV-3 ovarian = tested on: SK-OV-3 ovarian
HOP-62 NSCLC = tested on: HOP-62 NSCLC
MALME-3M melanoma = tested on: MALME-3M melanoma
MCF7 breast = tested on: MCF7 breast
SR leukemia = tested on: SR leukemia
COLO 205 colon = tested on: COLO 205 colon
SK-MEL-2 melanoma = tested on: SK-MEL-2 melanoma
UO-31 renal = tested on: UO-31 renal
HCT-116 colon = tested on: HCT-116 colon
U251 CNS = tested on: U251 CNS
SF-539 CNS = tested on: SF-539 CNS
KM12 colon = tested on: KM12 colon
DU-145 prostate = tested on: DU-145 prostate
SNB-19 CNS = tested on: SNB-19 CNS
SF-295 CNS = tested on: SF-295 CNS
NCI-H460 lung = tested on: NCI-H460 lung
HCC-2998 colon = tested on: HCC-2998 colon
MDA-MB-435 = tested on: MDA-MB-435
SK-MEL-28 melanoma = tested on: SK-MEL-28 melanoma
SK-MEL-5 melanoma = tested on: SK-MEL-5 melanoma
LOX IMVI melanoma = tested on: LOX IMVI melanoma
PC-3 prostate = tested on: PC-3 prostate
K-562 leukemia = tested on: K-562 leukemia
M14 melanoma = tested on: M14 melanoma
A498 renal = tested on: A498 renal
UACC-257 melanoma = tested on: UACC-257 melanoma
T-47D breast = tested on: T-47D breast
IGROV1 ovarian = tested on: IGROV1 ovarian
MOLT-4 leukemia = tested on: MOLT-4 leukemia
SF-268 CNS = tested on: SF-268 CNS
TK-10 renal = tested on: TK-10 renal
HOP-92 NSCLC = tested on: HOP-92 NSCLC
786-0 renal = tested on: 786-0 renal
RPMI-8226 leukemia = tested on: RPMI-8226 leukemia
NCI/ADR-RES ovarian = tested on: NCI/ADR-RES ovarian
NCI-H23 lung = tested on: NCI-H23 lung
BT-549 breast = tested on: BT-549 breast

Measured: TGI

Cc1ccc(NC(=S)N=Nc2c(O)[nH]c3ccccc23)cc1
not listed: BT-549 breast
> 100 µM: all other assays above

CC1=CC2=C(C#N)C(=O)OC2(C)C(c2ccccc2)C1 (stereo unspecified)
not listed: CCRF-CEM leukemia | CAKI-1 renal | HL-60(TB) leukemia | RXF 393 renal | MCF7 breast | SR leukemia | COLO 205 colon | HCC-2998 colon | SK-MEL-5 melanoma | T-47D breast | NCI-H23 lung
> 100 µM: all other assays above
